Test: method code SF-HPLC, from DOI: 10.1016/j.bmc.2003.11.030, PMID: 14759727
Conditions: pH 7.4

logD	Structure (SMILES)
2.28	CCOC(=O)c1ccc2[nH]c(NCCc3c[nH]cn3)nc2c1
3.03	FC(F)(F)c1ccc2[nH]c(NCCCc3c[nH]cn3)nc2c1
1.81	O=[N+]([O-])c1ccc2[nH]c(NCCc3c[nH]cn3)nc2c1
2.82	FC(F)(F)c1ccc2[nH]c(NCCc3c[nH]cn3)nc2c1
2.31	Clc1ccc2[nH]c(NCCc3c[nH]cn3)nc2c1

Same assay, conditions: pH 11.0

logD	Structure (SMILES)
1.78	c1ccc2[nH]c(NCCCc3cnc[nH]3)nc2c1
0.17	Nc1ccc2[nH]c(NCCCc3c[nH]cn3)nc2c1
1.43	COc1ccc2[nH]c(NCCc3c[nH]cn3)nc2c1
1.49	c1ccc2[nH]c(NCCc3c[nH]cn3)nc2c1

Further lines, the molecule ahead of its results:

Structure (SMILES)	logD
c1nc(CCNc2nc3cc4c(cc3[nH]2)OCO4)c[nH]1	1.44
Cc1ccc2[nH]c(NCCCc3c[nH]cn3)nc2c1	2.26
CNC(=O)c1ccc2[nH]c(NCCc3c[nH]cn3)nc2c1	0.48
CCCCc1ccc2[nH]c(NCCc3c[nH]cn3)nc2c1	3.64
CCCCc1ccc2[nH]c(NCCCc3c[nH]cn3)nc2c1	3.93
Nc1ccc2[nH]c(NCCc3c[nH]cn3)nc2c1	0.01

Reference: the SangsterLogP compilation
